Bridge positions count the residues as written; N and C are the ends. Peptide text beside a SMILES is read from it.
Assay: Calcitonin potency assay of the purified product (MRC units per mg)
Settings: purified freeze-dried product of Example 1

SMILES: CC(C)C[C@H](NC(=O)[C@H](CCCCN)NC(=O)CNC(=O)[C@H](CC(C)C)NC(=O)[C@@H](NC(=O)[C@@H]1CSSC[C@H](N)C(=O)N[C@@H](CC(N)=O)C(=O)N[C@@H](CC(C)C)C(=O)N[C@@H](CO)C(=O)N[C@@H]([C@@H](C)O)C(=O)N1)C(C)C)C(=O)N[C@@H](CO)C(=O)N[C@@H](CCC(N)=O)C(=O)N[C@@H](CCC(=O)O)C(=O)N[C@@H](CC(C)C)C(=O)N[C@@H](Cc1c[nH]cn1)C(=O)N[C@@H](CCCCN)C(=O)N[C@@H](CC(C)C)C(=O)N[C@@H](CCC(N)=O)C(=O)N[C@H](C(=O)N[C@@H](Cc1ccc(O)cc1)C(=O)N1CCC[C@H]1C(=O)N[C@@H](CCCNC(=N)N)C(=O)N[C@H](C(=O)N[C@@H](CC(N)=O)C(=O)N[C@H](C(=O)NCC(=O)N[C@@H](CO)C(=O)NCC(=O)N[C@H](C(=O)N1CCC[C@H]1C(N)=O)[C@@H](C)O)[C@@H](C)O)[C@@H](C)O)[C@@H](C)O [des-Ser^2-SCT, des-ser^2 -salmon calcitonin] (H-CNLSTCVLGKLSQELHKLQTYPRTNTGSGTP-NH2; disulfide 1-6)
- biological potency (assayed MRC units per mg): 5600 MRC units per mg

Reference: patent US4217268A, “Synthesis of peptides” (priority 1978, dated 1980)
